# pIC50: −log10 of the molar value.
# Tests used:
# [1] = biological target: Adenosine A2 receptor (Rattus norvegicus, UniProt P29276+P30543); assay: Potency against PC12 cell A2 adenosine receptor by adenylate cyclase activation; assay type: cell-based; conditions: pc-12
# [2] = biological target: Adenosine A2 receptor (Homo sapiens, UniProt P29275+P29274); assay: Potency against human platelet A2 adenosine receptor
# [3] = biological target: T1, Adenosine receptor A1 (Rattus norvegicus, UniProt P25099); assay: Potency against rat brain adenosine A1 receptor
# T1 sequence (P25099 whole entry): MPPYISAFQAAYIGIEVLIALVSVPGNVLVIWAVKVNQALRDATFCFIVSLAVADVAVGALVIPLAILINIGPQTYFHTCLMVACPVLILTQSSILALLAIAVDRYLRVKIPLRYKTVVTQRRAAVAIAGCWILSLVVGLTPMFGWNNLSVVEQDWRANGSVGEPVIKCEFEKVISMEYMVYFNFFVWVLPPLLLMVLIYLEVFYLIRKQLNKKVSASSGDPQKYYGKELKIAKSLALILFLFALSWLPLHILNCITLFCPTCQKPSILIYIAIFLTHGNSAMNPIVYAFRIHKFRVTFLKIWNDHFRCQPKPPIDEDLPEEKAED
# [4] = biological target: T2, Adenosine receptor A1 (Rattus norvegicus) (UniProt P25099); assay: Potency against rat brain adenosine A1 receptor at 10 uM
# T2 sequence (whole entry): T1 sequence (P25099 whole entry)
# [5] = biological target: T1, Adenosine receptor A1; assay: Potency against rat brain A1 adenosine receptor
Compound,EC50 [1],EC50 [2],pIC50 [3],inhibition [4],pIC50 [5]
CCNC(=O)[C@H]1OC(n2cnc3c(N(C)C)ncnc32)[C@H](O)[C@@H]1O (some centres undefined),> 100000 nM,> 100000 nM,5.00,–,–
O=C([C@H]1OC(n2cnc3c(N4CCCCC4)ncnc32)[C@H](O)[C@@H]1O)N1CCCCC1 (some centres undefined),> 100000 nM,–,–,0%,–
NC(=O)[C@H]1OC(n2cnc3c(N)ncnc32)[C@H](O)[C@@H]1O (some centres undefined),1560 nM,5700 nM,7.15,–,–
CNC(=O)[C@H]1O[C@@H](n2cnc3c(N)ncnc32)[C@H](O)[C@@H]1O,–,1700 nM,6.98,–,–
Nc1ncnc2c1ncn2[C@@H]1O[C@H](C(=O)NC2CC2)[C@@H](O)[C@H]1O,–,260 nM,–,–,–
CCNC(=O)[C@H]1OC(n2cnc3c(NC4CCCCC4)ncnc32)[C@H](O)[C@@H]1O (some centres undefined),1830 nM,–,–,–,–
CCNC(=O)[C@H]1O[C@@H](n2cnc3c(N[C@H](CC)Cc4ccccc4)ncnc32)[C@H](O)[C@@H]1O,–,–,9.28,–,–
CCNC(=O)[C@H]1O[C@@H](n2cnc3c(N[C@H](C)Cc4ccccc4)ncnc32)[C@H](O)[C@@H]1O,980 nM,3100 nM,8.62,–,–
CCNC(=O)[C@H]1O[C@@H](n2cnc3c(N[C@@H](CC)Cc4ccccc4)ncnc32)[C@H](O)[C@@H]1O,–,–,7.59,–,–

# Second part, the molecule after the results:
EC50 [1],EC50 [2],pIC50 [3],inhibition [4],pIC50 [5],Compound
> 100000 nM,–,4.89,–,–,CCC(CC)Nc1ncnc2c1ncn2C1O[C@H](C(=O)N(C)C)[C@@H](O)[C@H]1O (some centres undefined)
8900 nM,–,7.77,–,–,C=CCNC(=O)[C@H]1OC(n2cnc3c(NC(CC)CC)ncnc32)[C@H](O)[C@@H]1O (some centres undefined)
> 100000 nM,–,6.98,–,–,CCC(CC)Nc1ncnc2c1ncn2C1O[C@H](C(=O)NCc2ccccc2)[C@@H](O)[C@H]1O (some centres undefined)
6400 nM,–,7.70,–,–,CCC(CC)Nc1ncnc2c1ncn2C1O[C@H](C(=O)NC)[C@@H](O)[C@H]1O (some centres undefined)
> 100000 nM,–,5.85,–,–,CCC(CC)NC(=O)[C@H]1OC(n2cnc3c(NC(CC)CC)ncnc32)[C@H](O)[C@@H]1O (some centres undefined)
540 nM,–,–,–,8.70,CCC(CC)Nc1ncnc2c1ncn2C1O[C@H](C(=O)NC2CC2)[C@@H](O)[C@H]1O (some centres undefined)
5100 nM,–,–,–,7.96,CCC(CC)Nc1ncnc2c1ncn2C1O[C@H](C(=O)NC(C)C)[C@@H](O)[C@H]1O (some centres undefined)
> 100000 nM,–,5.77,–,–,CCC(CC)Nc1ncnc2c1ncn2C1O[C@H](C(=O)N(CC)CC)[C@@H](O)[C@H]1O (some centres undefined)
> 100000 nM,–,–,–,–,CCCCN(C)C(=O)[C@H]1OC(n2cnc3c(NC(CC)CC)ncnc32)[C@H](O)[C@@H]1O (some centres undefined)
